For experiment [1], the system named is human lung cancer strain NCI-H441. Format: cell-based. In short, it runs like this:
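Proliferation was scored by […] measured after the reagent was added to cultures kept at 37°C in 5% carbon dioxide.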

Experiment [2] addresses GDP-bound NRAS wild-type protein (Homo sapiens, UniProt P01111). The experiment is described as follows: Binding to NRAS by surface plasmon resonance (SPR), KD and KD ratio to KRAS. The settings on record: ratio of KD for GDP-bound NRAS wild-type protein to KD for KRAS. In short, it runs like this:
(§1)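 Single-cycle kinetics on GDP-loaded biotin-Avi RAS captured to ~100–300 RU; 75 s ascending injections, 100 µL/min, 30°C. HBS pH 7.4 + 10 mM MgCl2/10 µM GDP/4% DMSO. 1:1 fit, KD.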

The target of a further experiment is HRAS wild-type protein (Homo sapiens, UniProt P01112). The experiment in a line: Binding to HRAS by surface plasmon resonance (SPR), KD and KD ratio to KRAS. The settings on record: ratio of KD for HRAS wild-type protein to KD for KRAS. The procedure, abridged: as §1
Sequence of HRAS wild-type protein (P01112 whole entry): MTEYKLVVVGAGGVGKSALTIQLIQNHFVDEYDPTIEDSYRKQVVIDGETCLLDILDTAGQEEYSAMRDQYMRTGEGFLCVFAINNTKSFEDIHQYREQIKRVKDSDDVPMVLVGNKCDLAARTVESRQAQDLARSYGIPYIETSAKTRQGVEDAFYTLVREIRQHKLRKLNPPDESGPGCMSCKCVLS

The values that follow come from patent EP4603105A1, “PHARMACEUTICAL COMPOSITION CONTAINING CYCLIC COMPOUND HAVING SELECTIVE KRAS INHIBITORY EFFECT AGAINST HRAS AND NRAS” (CHUGAI SEIYAKU KABUSHIKI KAISHA, priority 2022, dated 2024).

SMILES strings stand for the structures.

Sequence of GDP-bound NRAS wild-type protein (P01111 whole entry): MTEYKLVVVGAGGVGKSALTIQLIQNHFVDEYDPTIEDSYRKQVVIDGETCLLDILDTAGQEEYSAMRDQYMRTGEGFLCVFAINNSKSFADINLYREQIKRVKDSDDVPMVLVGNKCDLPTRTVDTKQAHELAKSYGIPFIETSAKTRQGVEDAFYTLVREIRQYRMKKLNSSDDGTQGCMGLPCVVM

Compound `CCO[C@@H]1C[C@H]2C(=O)NC3(CCC3)C(=O)N(C)[C@@H](C3CCCC3)C(=O)N[C@H](C)CC(=O)N(C)[C@@H](CC)C(=O)N[C@@H]([C@@H](C)CC)C(=O)N(C)CC(=O)N(C)[C@H]3C/C=C\CCN(C3=O)[C@@H](Cc3ccc(C(F)(F)F)cc3)C(=O)N(C)CC(=O)N[C@@H](CCc3cc(F)c(C(F)(F)F)c(F)c3)C(=O)N2C1` [PP1098] registered an IC50 in experiment [1] of 0.101 µM. Further, the “NRAS /KRAS” value in experiment [2] was “B (a compound having 3 or more and less than 10 is denoted as B)”. Also, the “HRAS /KRAS” value on HRAS wild-type protein was “B (a compound having 3 or more and less than 10 is denoted as B)”.

`CC[C@H](C)[C@@H]1NC(=O)[C@H](CC)N(C)C(=O)C[C@@H](C)N(C)C(=O)[C@H](C2CCCC2)N(C)C(=O)C2(CCCC2)NC(=O)[C@@H]2CCCN2C(=O)[C@H](CCc2cc(F)c(C(F)(F)F)c(F)c2)NC(=O)CN(C)C(=O)[C@H](Cc2ccc(C(F)(F)F)cc2)N2CC/C=C\C[C@@H](C2=O)N(C)C(=O)CN(C)C1=O` [PP1101] showed an IC50 in experiment [1] of 0.0684 µM. The “NRAS /KRAS” value in experiment [2] is “B (a compound having 3 or more and less than 10 is denoted as B)”. Moreover, the “HRAS /KRAS” value at HRAS wild-type protein was “B (a compound having 3 or more and less than 10 is denoted as B)”.

`CC[C@H](C)[C@@H]1NC(=O)[C@H](CC(C)C)N(C)C(=O)C[C@@H](C)N(C)C(=O)[C@H](C2CCCC2)N(C)C(=O)C2(CCCC2)NC(=O)[C@@H]2CCCN2C(=O)[C@H](CCc2cc(F)c(C(F)(F)F)c(F)c2)NC(=O)CN(C)C(=O)[C@H](Cc2ccc(C(F)(F)F)cc2)N2CC/C=C\C[C@@H](C2=O)N(C)C(=O)CN(C)C1=O` [PP1102] showed an IC50 in experiment [1] of 0.0831 µM. For the same compound, the “NRAS /KRAS” value in experiment [2] is “B (a compound having 3 or more and less than 10 is denoted as B)”. Besides, on HRAS wild-type protein, the “HRAS /KRAS” value was “A (a compound having 10 or more and less than 20 is denoted as A)”.

`CC[C@H](C)[C@@H]1NC(=O)[C@H](C)N(C)C(=O)C[C@@H](C(=O)N(C)C)N(C)C(=O)[C@H](C2CCCC2)N(C)C(=O)C2(CCC2)NC(=O)[C@@H]2CC(F)(F)CN2C(=O)[C@H](CCc2cc(F)c(C(F)(F)F)c(F)c2)NC(=O)CN(C)C(=O)[C@H](Cc2ccc(C(F)(F)F)cc2)N2CC/C=C\C[C@@H](C2=O)N(C)C(=O)CN(C)C1=O` [PP1103] returned an IC50 in experiment [1] of 0.0348 µM. For the same compound, in experiment [2], the “NRAS /KRAS” value is “A (a compound having 10 or more and less than 20 is denoted as A)”. The “HRAS /KRAS” value on HRAS wild-type protein is “B (a compound having 3 or more and less than 10 is denoted as B)”.

For the compound `CCO[C@@H]1C[C@H]2C(=O)NC3(CCCC3)C(=O)N(C)[C@@H](C3CCCC3)C(=O)N(C)[C@H](C(=O)N(C)C)CC(=O)N(C)[C@@H](C)C(=O)N[C@@H]([C@@H](C)CC)C(=O)N(C)CC(=O)N(C)[C@H]3C/C=C\CCN(C3=O)[C@@H](Cc3ccc(C(F)(F)F)cc3)C(=O)N(C)CC(=O)N[C@@H](CCc3cc(F)c(C(F)(F)F)c(F)c3)C(=O)N2C1` [PP1104], 0.0446 µM corresponded to half-maximal inhibition in experiment [1] (IC50). In addition, the “NRAS /KRAS” value in experiment [2] is “A (a compound having 10 or more and less than 20 is denoted as A)”. Besides, the “HRAS /KRAS” value on HRAS wild-type protein was “A (a compound having 10 or more and less than 20 is denoted as A)”.

`CC[C@H](C)[C@@H]1NC(=O)[C@H](CC)N(C)C(=O)C[C@@H](C(=O)N(C)C)N(CC)C(=O)[C@H](C2CCCC2)N(C)C(=O)C2(CCC2)NC(=O)[C@@H]2CCCN2C(=O)[C@H](CCc2cc(F)c(C(F)(F)F)c(F)c2)NC(=O)CN(C)C(=O)[C@H](Cc2ccc(C(F)(F)F)cc2)N2CC/C=C\C[C@@H](C2=O)N(C)C(=O)CN(C)C1=O` [PP1106] yielded an IC50 in experiment [1] of 0.155 µM. Further, the “NRAS /KRAS” value in experiment [2] was “A (a compound having 10 or more and less than 20 is denoted as A)”. Moreover, the “HRAS /KRAS” value on HRAS wild-type protein is “A (a compound having 10 or more and less than 20 is denoted as A)”.

Regarding `CCO[C@@H]1C[C@H]2C(=O)NC3(CCC3)C(=O)N(C)[C@@H](C3CCCC3)C(=O)N(C)[C@H](C(=O)N(C)C)CC(=O)N(C)[C@@H](CC(C)C)C(=O)N[C@@H]([C@@H](C)CC)C(=O)N(C)CC(=O)N(C)[C@H]3C/C=C\CCN(C3=O)[C@@H](Cc3ccc(C(F)(F)F)cc3)C(=O)N(C)CC(=O)N[C@@H](CCc3cc(F)c(C(F)(F)F)c(F)c3)C(=O)N2C1` [PP1107], the IC50 in experiment [1] was 0.0054 µM. In experiment [2], the “NRAS /KRAS” value is “A (a compound having 10 or more and less than 20 is denoted as A)”. For the same compound, at HRAS wild-type protein, the “HRAS /KRAS” value is “A (a compound having 10 or more and less than 20 is denoted as A)”.

As for `CCO[C@@H]1C[C@H]2C(=O)NC3(CCC3)C(=O)N(C)[C@@H](C3CCCC3)C(=O)N(C)[C@H](C(=O)N(C)C)CC(=O)N(C)[C@@H](C)C(=O)N[C@@H]([C@@H](C)CC)C(=O)N(C)CC(=O)N(C)[C@H]3C/C=C\CCN(C3=O)[C@@H](Cc3ccc(C(F)(F)F)cc3)C(=O)N(C)CC(=O)N[C@@H](CCc3cc(F)c(C(F)(F)F)c(F)c3)C(=O)N2C1` [PP1108], the IC50 in experiment [1] was determined as 0.0283 µM. For the same compound, in experiment [2], the “NRAS /KRAS” value was “A (a compound having 10 or more and less than 20 is denoted as A)”. At HRAS wild-type protein, the “HRAS /KRAS” value is “A (a compound having 10 or more and less than 20 is denoted as A)”.

In experiment [1], `CCO[C@@H]1C[C@H]2C(=O)NC3(CCC3)C(=O)N(C)[C@@H](C3CCCC3)C(=O)N(C)[C@H](C(=O)N(C)C)CC(=O)N(C)[C@@H](C(C)C)C(=O)N[C@@H]([C@@H](C)CC)C(=O)N(C)CC(=O)N(C)[C@H]3C/C=C\CCN(C3=O)[C@@H](Cc3ccc(C(F)(F)F)cc3)C(=O)N(C)CC(=O)N[C@@H](CCc3cc(F)c(C(F)(F)F)c(F)c3)C(=O)N2C1` [PP1109] came in with an IC50 of 0.017 µM. Also, the “NRAS /KRAS” value in experiment [2] is “A (a compound having 10 or more and less than 20 is denoted as A)”. Further, the “HRAS /KRAS” value at HRAS wild-type protein was “B (a compound having 3 or more and less than 10 is denoted as B)”.

In the case of `CCC[C@H]1C(=O)N[C@@H]([C@@H](C)CC)C(=O)N(C)CC(=O)N(C)[C@H]2C/C=C\CCN(C2=O)[C@@H](Cc2ccc(C(F)(F)F)cc2)C(=O)N(C)CC(=O)N[C@@H](CCc2cc(F)c(C(F)(F)F)c(F)c2)C(=O)N2C[C@H](OCC)C[C@H]2C(=O)NC2(CCC2)C(=O)N(C)[C@@H](C2CCCC2)C(=O)N(C)[C@H](C(=O)N(C)C)CC(=O)N1C` [PP1110], the IC50 in experiment [1] stood at 0.0112 µM. Also, the “NRAS /KRAS” value in experiment [2] is “A (a compound having 10 or more and less than 20 is denoted as A)”. Moreover, at HRAS wild-type protein, the “HRAS /KRAS” value was “B (a compound having 3 or more and less than 10 is denoted as B)”.

In turn, `CCO[C@@H]1C[C@H]2C(=O)NC3(CCC3)C(=O)N(C)[C@@H](C3CCCC3)C(=O)N(C)[C@H](C(=O)N(C)C)CC(=O)N(C)[C@@H](CC3CC3)C(=O)N[C@@H]([C@@H](C)CC)C(=O)N(C)CC(=O)N(C)[C@H]3C/C=C\CCN(C3=O)[C@@H](Cc3ccc(C(F)(F)F)cc3)C(=O)N(C)CC(=O)N[C@@H](CCc3cc(F)c(C(F)(F)F)c(F)c3)C(=O)N2C1` [PP1111] registered a half-inhibitory concentration (IC50) in experiment [1] of 0.013 µM. Also, the “NRAS /KRAS” value in experiment [2] is “A (a compound having 10 or more and less than 20 is denoted as A)”. Further, the “HRAS /KRAS” value on HRAS wild-type protein was “A (a compound having 10 or more and less than 20 is denoted as A)”.

Take `CCO[C@@H]1C[C@H]2C(=O)NC3(CCC3)C(=O)N(C)[C@@H](C3CCCC3)C(=O)N(C)[C@H](C(=O)N(C)C)CC(=O)N(C)[C@@H](COC)C(=O)N[C@@H]([C@@H](C)CC)C(=O)N(C)CC(=O)N(C)[C@H]3C/C=C\CCN(C3=O)[C@@H](Cc3ccc(C(F)(F)F)cc3)C(=O)N(C)CC(=O)N[C@@H](CCc3cc(F)c(C(F)(F)F)c(F)c3)C(=O)N2C1` [PP1113]: in experiment [1], the midpoint of inhibition, the IC50, lay at 0.0214 µM. For the same compound, in experiment [2], the “NRAS /KRAS” value is “A (a compound having 10 or more and less than 20 is denoted as A)”. The “HRAS /KRAS” value on HRAS wild-type protein was “A (a compound having 10 or more and less than 20 is denoted as A)”.

Compound `C=CC[C@H]1C(=O)N[C@@H]([C@@H](C)CC)C(=O)N(C)CC(=O)N(C)[C@H]2C/C=C\CCN(C2=O)[C@@H](Cc2ccc(C(F)(F)F)cc2)C(=O)N(C)CC(=O)N[C@@H](CCc2cc(F)c(C(F)(F)F)c(F)c2)C(=O)N2C[C@H](OCC)C[C@H]2C(=O)NC2(CCC2)C(=O)N(C)[C@@H](C2CCCC2)C(=O)N(C)[C@H](C(=O)N(C)C)CC(=O)N1C` [PP1114] gave an IC50 in experiment [1] of 0.0122 µM. In experiment [2], the “NRAS /KRAS” value was “A (a compound having 10 or more and less than 20 is denoted as A)”. Moreover, the “HRAS /KRAS” value at HRAS wild-type protein is “A (a compound having 10 or more and less than 20 is denoted as A)”.

With `C#CC[C@H]1C(=O)N[C@@H]([C@@H](C)CC)C(=O)N(C)CC(=O)N(C)[C@H]2C/C=C\CCN(C2=O)[C@@H](Cc2ccc(C(F)(F)F)cc2)C(=O)N(C)CC(=O)N[C@@H](CCc2cc(F)c(C(F)(F)F)c(F)c2)C(=O)N2C[C@H](OCC)C[C@H]2C(=O)NC2(CCC2)C(=O)N(C)[C@@H](C2CCCC2)C(=O)N(C)[C@H](C(=O)N(C)C)CC(=O)N1C` [PP1115], inhibition in experiment [1] was half-maximal at 0.029 µM (IC50). Further, the “NRAS /KRAS” value in experiment [2] is “A (a compound having 10 or more and less than 20 is denoted as A)”. Moreover, on HRAS wild-type protein, the “HRAS /KRAS” value is “A (a compound having 10 or more and less than 20 is denoted as A)”.

Turning to `CCO[C@@H]1C[C@H]2C(=O)NC3(CCC3)C(=O)N(C)[C@@H](C3CCCC3)C(=O)N(C)[C@H](C(=O)N(C)C)CC(=O)N(C)[C@@H](Cc3ccccc3)C(=O)N[C@@H]([C@@H](C)CC)C(=O)N(C)CC(=O)N(C)[C@H]3C/C=C\CCN(C3=O)[C@@H](Cc3ccc(C(F)(F)F)cc3)C(=O)N(C)CC(=O)N[C@@H](CCc3cc(F)c(C(F)(F)F)c(F)c3)C(=O)N2C1` [PP1116], in experiment [1], half-maximal inhibition (IC50) was put at 0.0198 µM. Moreover, the “NRAS /KRAS” value in experiment [2] is “A (a compound having 10 or more and less than 20 is denoted as A)”. Besides, the “HRAS /KRAS” value on HRAS wild-type protein was “A (a compound having 10 or more and less than 20 is denoted as A)”.
